{"source": "patent US20150047066A1", "about": "“PLANT HAVING INCREASED RESISTANCE OR SUSCEPTIBILITY TO 4-HPPD INHIBITOR” (TOYAMA PREFECTURE, priority 2010, published 2015)", "key": {"[1]": {"test_system": "rice recombinants (Kanto 239) having the target gene (AK065581) introduced therein", "assay": "Triketone type 4-HPPD inhibitor resistance assay on rice recombinants (T1/T2 seeds, HIS1) on agar medium", "assay_type": "in vivo", "procedure": "(§1) For transformation of rice, a BBC susceptible rice cultivar Kanto 239 was used, and the method described in “Taniguchi et al., Plant Cell Rep., 2010, vol. 29, iss. 11, pp. 1287 to 1295” was performed with some modification. Specifically, first, sterilized mature seeds were sown on an N6D medium. After culturing at 30° C. for 7 days, the seeds were infected with Agrobacterium, and co-cultured in an acetosyringone (AS)-containing N6 medium (2N6-AS medium) under a dark condition at 25° C. for 3 days. Thereafter, the infected tissues were cultured in a carbenicillin-containing N6D medium for 4 to 6 weeks (18 hours day length) in the presence of 40 mg/L hygromycin (Hyg), and Hyg-tolerant calli were re-differentiated.\nRice recombinants (T1 and T2 generations) were produced and subjected to a resistance assay with triketone type 4-HPPD inhibitors, that is, mesotrione, tefuryltrione, tembotrione, and NTBC, using commercially-available reagents at concentrations to be described later.\nFurthermore, recombinants were prepared by introducing the target gene into the BBC susceptible rice cultivar “Kanto 239” that would be whitened by an agar medium containing 0.1 μM BBC, and T1 seeds or T2 seeds were obtained. These were seeded on an agar medium containing 2 μM BBC, and the growth state of the recombinants was examined. […] Moreover, the seeds were seeded on an agar medium containing 1 μM mesotrione, 2.5 μM tefuryltrione, 0.5 μM tembotrione, or 1 μM NTBC, and the growth state of the recombinants was examined. FIGS. 12 to 15 show the obtained results."}, "[2]": {"test_system": "A. thaliana (ecotype Columbia)", "assay": "BBC whitening of wildtype A. thaliana on agar medium", "assay_type": "in vivo, Arabidopsis thaliana", "settings": "agar medium containing 0.03 μM BBC", "procedure": "Whether or not a protein encoded by a particular gene has an activity of providing a plant with resistance to a 4-HPPD inhibitor can be determined, for example, by introducing the gene into a plant, and assaying whether or not the plant thus produced is provided with the resistance as described in Examples later (see Example 2). Specifically, in a case of using A. thaliana (ecotype Columbia) that would be whitened by an agar medium containing 0.03 μM BBC, if a transformant produced by introducing the gene into A. thaliana can grow without being whitened in the presence of BBC at the above concentration, the protein encoded by the gene can be determined to have an activity of providing a plant with resistance to a 4-HPPD inhibitor. Moreover, in a case of using a BBC susceptible rice cultivar “Kanto 239” that would be whitened by an agar medium containing 0.1 μM BBC, if a transformant produced by introducing the gene into Kanto 239 can grow without being whitened in the presence of BBC at the above concentration, the protein encoded by the gene can be determined to have an activity of providing a plant with resistance to a 4-HPPD inhibitor."}, "[3]": {"test_system": "A. thaliana recombinants having the target gene introduced therein", "assay": "BBC resistance assay on A. thaliana recombinants (T2) having the target gene (AK065581, HIS1) introduced", "assay_type": "in vivo, Arabidopsis thaliana", "settings": "HIS1 recombinants T2 generation, agar medium containing 0.03 μM BBC", "procedure": "For transformation of A. thaliana, ecotype “Columbia” was used, and a Floral dip method was performed (see Weigel and Glazebrook, Arabidopsis, a laboratory manual, Cold Spring Harbor Laboratory Press (2002) p131-132). Specifically, first, Agrobacterium was shake-cultured in a liquid medium (LB or YEB) containing an antibiotic. Approximately 16 hours later, 2 ml of the culture solution was added to a liquid medium (LB or YEB) containing an antibiotic, and further shake-cultured. Then, the culture solution obtained approximately 16 hours thereafter was centrifuged at 8000 rpm at 4° C. for 10 minutes. The supernatant liquid was discarded, and the resulting precipitate was suspended in 500 ml of a solution containing 5% sucrose. Subsequently, immediately before the transformation, a transformation reagent silwet (registered trademark: SILWET L-77, product number: BMS-SL7755, manufactured by Bio Medical Science Inc.) was added thereto at a final concentration of 0.025%. Then, into the Agrobacterium suspension thus obtained, Arabidopsis from which already flowered and pollinated buds had been removed was dipped for 30 to 120 seconds. Thereafter, the plants were left standing for 16 hours and then grown to obtain the seeds. […]"}, "[4]": {"test_system": "BBC susceptible rice cultivar Kanto 239", "assay": "BBC whitening of wildtype susceptible rice on agar medium", "assay_type": "in vivo", "settings": "Kanto 239 wildtype, agar medium containing 0.1 μM BBC", "procedure": "Whether or not a protein encoded by a particular gene has an activity of providing a plant with resistance to a 4-HPPD inhibitor can be determined, for example, by introducing the gene into a plant, and assaying whether or not the plant thus produced is provided with the resistance as described in Examples later (see Example 2). Specifically, in a case of using A. thaliana (ecotype Columbia) that would be whitened by an agar medium containing 0.03 μM BBC, if a transformant produced by introducing the gene into A. thaliana can grow without being whitened in the presence of BBC at the above concentration, the protein encoded by the gene can be determined to have an activity of providing a plant with resistance to a 4-HPPD inhibitor. Moreover, in a case of using a BBC susceptible rice cultivar “Kanto 239” that would be whitened by an agar medium containing 0.1 μM BBC, if a transformant produced by introducing the gene into Kanto 239 can grow without being whitened in the presence of BBC at the above concentration, the protein encoded by the gene can be determined to have an activity of providing a plant with resistance to a 4-HPPD inhibitor. […]"}, "[5]": {"test_system": "rice recombinants (Kanto 239) having the target gene (AK065581) introduced therein", "assay": "BBC resistance assay on rice recombinants (T0, HIS1) in composted soil", "assay_type": "in vivo", "settings": "HIS1 recombinants T0 generation, composted soil treated with BBC at 300 ga.i./ha", "procedure": "as §1\nFurther, recombinants (TO generation) were prepared by introducing the target gene into the BBC susceptible rice cultivar “Kanto 239” that would be whitened by an agar medium containing 0.1 μM BBC, and the growth state of the recombinants was examined in composted soil treated with BBC at 300 ga.i./ha."}, "[6]": {"test_system": "BBC resistant cultivar Nipponbare", "assay": "BBC whitening of resistant rice cultivar on agar medium", "assay_type": "in vivo"}, "[7]": {"test_system": "rice recombinants (Kanto 239) having the homologous gene (HSL1; AK241948) introduced therein", "assay": "BBC resistance assay on rice recombinants having the HSL1 gene (AK241948) on agar medium", "assay_type": "in vivo", "settings": "agar medium containing 0.12 μM BBC", "procedure": "as §1\nSpecifically, recombinants were prepared by introducing the target gene into the BBC susceptible rice cultivar “Kanto 239” that would be whitened by an agar medium containing 0.1 μM BBC, and T1 seeds or T2 seeds were obtained. These were seeded on an agar medium containing 0.12 μM BBC, and the growth state of the recombinants was examined."}, "[8]": {"test_system": "tomato cultivar Micro-Tom", "assay": "Germination of tomato seeds on BBC agar medium", "assay_type": "in vivo", "settings": "Micro-Tom seeds germinated on agar medium containing 0.3 μM BBC, 25° C., approximately 2 weeks", "procedure": "For transformation of tomatoes, a cultivar “Micro-Tom” was tested, and an Agrobacterium method was performed using vectors (35SHIS1pZK3, 35SHSL1pZK3) shown in FIGS. 5 and 7. Note that when seeds of the original cultivar Micro-Tom were germinated on an agar medium containing 0.3 μM benzobicyclon (BBC) using an incubator at 25° C., it was clearly observed approximately 2 weeks later that leaf parts thereof were whitened."}, "[9]": {"test_system": "Tos17-inserted lines of Nipponbare", "assay": "Linkage analysis of BBC susceptibility in Tos17-inserted lines", "assay_type": "in vivo, rice", "settings": "all progenies of six Tos17-inserted homozygous individuals", "text": "A retrotransposon Tos17 discovered in rice is activated by tissue culture, and its copies are transposed into a genome. It is known that when the transposition site is inside a gene, the gene is to be disrupted, causing a mutation (see Hirochika et al., Proc. Natl. Acad. Sci. USA, 1996, vol. 93, pp. 7783 to 7788). The present Examples utilized a rice population having accumulated mutations caused by tissue culture utilizing the phenomenon (mutant panel, database name: Tos17 mutant panel database (http://tos.nias.affrc.go.jp/ to miyao/pub/tos17/)). From the Tos17 mutant panel database, two lines were selected, in each of which Tos17 was inserted in a transcription site of a hypothetical gene of an iron/ascorbate oxidoreductase gene, which was strongly suspected of being associated with BBC susceptibility located at a gene locus specified by the QTL analysis. Then, self-fertilized seeds obtained by planting 15 individuals of each of these two lines were used to examine phenotype (BBC susceptibility) and genotype (Tos17 insertion).\nAlthough the original cultivar “Nipponbare” of the Tos17-inserted lines is a BBC resistant cultivar, BBC susceptible individuals are derived from the lines having Tos17 inserted in the transcription site of the target gene. […]"}, "[10]": {"test_system": "KHSL04", "assay": "BBC susceptibility of Koshihikari/Habataki chromosome segment substitution lines (QTL analysis)", "assay_type": "in vivo, rice", "settings": "KHSL04, short arm region of chromosome 2 substituted with Habataki type", "procedure": "A Koshihikari/Habataki chromosome segment substitution line and Tachisugata//Tachisugata/Momiroman BC1F4 were tested. Specifically, Koshihikari/Habataki chromosome segment substitution lines (KHSL) were analyzed, in which a portion of chromosome fragments of a resistant cultivar Koshihikari serving as the genetic background was substituted with a chromosome of an indica type susceptible cultivar Habataki. Note that KHSL consists of 32 lines, and enables analysis on all of the whole 12 chromosomes of Habataki (as to KHSL, see Kazumasa Murata et al., “Development and evaluation of CSSLs carrying overlapping chromosome segments of rice cultivar Habataki in a genetic background of cultivar Koshihikari, ” Breeding Research, Mar. 27, 2009, vol. 11, supplement issue 1, p. 66). In addition, 94 BC1F4 lines obtained by one-time backcrossing of a resistant cultivar Tachisugata to a susceptible cultivar Momiroman were analyzed using 80 SSR markers (as to the SSR markers used, see “Development and mapping of 2240 new SSR markers for rice (Oryza sativa L.)”, DNA Res, 2002, vol. 9, iss. 6, pp. 199 to 207, and http://www.gramene.org/).\nAccordingly, the QTL analysis was performed as described above on the Koshihikari/Habataki chromosome segment substitution lines (KHSL) using the BBC resistant rice cultivar “Koshihikari” and the susceptible rice cultivar “Habataki”."}, "[11]": {"test_system": "Momiroman, Takanari, Kasalath", "assay": "BBC susceptibility level of susceptible rice cultivars", "assay_type": "in vivo", "settings": "Momiroman and Takanari in comparison with Kasalath"}}, "data": [{"smiles": "CS(=O)(=O)c1ccc(C(=O)C2C(=O)CCCC2=O)c(Cl)c1COCC(F)(F)F", "note": "[tembotrione]", "values": [{"measurement": "growth state of the recombinants", "setting": "[1]; agar medium treated with 0.5 μM tembotrione", "result": "grew without being whitened"}]}, {"smiles": "CS(=O)(=O)c1ccc(C(=O)C2C(=O)CCCC2=O)c([N+](=O)[O-])c1", "note": "[mesotrione]", "values": [{"measurement": "growth state of the recombinants", "setting": "[1]; agar medium treated with 1 μM mesotrione", "result": "grew without being whitened"}]}, {"smiles": "O=C1CCCC(=O)C1C(=O)c1ccc(C(F)(F)F)cc1[N+](=O)[O-]", "note": "[NTBC, 2-(2-nitro-4-trifluoromethylbenzoyl)cyclohexane-1,3-dione]", "values": [{"measurement": "growth state of the recombinants", "setting": "[1]; agar medium treated with 1 μM NTBC", "result": "grew without being whitened"}]}, {"smiles": "CS(=O)(=O)c1ccc(C(=O)C2C(=O)CCCC2=O)c(Cl)c1COCC1CCCO1", "note": "(stereo not shown) [tefuryltrione]", "values": [{"measurement": "growth state of the recombinants", "setting": "[1]; agar medium treated with 2.5 μM tefuryltrione", "result": "grew without being whitened"}]}, {"smiles": "CS(=O)(=O)c1ccc(C(=O)C2=C(Sc3ccccc3)C3CCC(C3)C2=O)c(Cl)c1", "note": "(stereo not shown) [BBC, benzobicyclon]", "values": [{"measurement": "whitening of the plant", "setting": "[2]", "result": "whitened"}, {"measurement": "growth state of the recombinants", "setting": "[3]", "result": "grew without being whitened"}, {"measurement": "whitening of the plant", "setting": "[4]", "result": "whitened"}, {"measurement": "growth state of the recombinants", "setting": "[5]", "result": "grew without being whitened"}, {"measurement": "growth state of the recombinants", "setting": "[1]; agar medium treated with 2 μM BBC", "result": "grew without being whitened"}, {"measurement": "whitening of the plant", "setting": "[6]; 0.12 μM BBC", "result": "not whitened"}, {"measurement": "whitening of the plant", "setting": "[6]; agar medium 2 μM BBC", "result": "sufficient to whiten"}, {"measurement": "growth state of the recombinants", "setting": "[7]", "result": "grew without being whitened"}, {"measurement": "whitening of leaf parts", "setting": "[8]", "result": "whitened"}, {"measurement": "phenotype (BBC susceptibility)", "setting": "[9]", "result": "showed BBC susceptibility"}, {"measurement": "BBC susceptibility", "setting": "[10]", "result": "showed susceptibility"}, {"measurement": "degree of BBC susceptibility", "setting": "[11]", "result": "high BBC susceptibility"}]}]}
